Test results from patent US11730717B1, “Melanin-inspired antimicrobial” (The Board of Regents for the Oklahoma Agricultural and …, priority 2020, dated 2023).

Assays:
Assay in all cases: Disc agar diffusion assay
Assay type in all cases: cell-based
[1] = tested on: Bacillus cereus
Method: (§1) As a further test of an embodiment, the antibacterial properties of EIPE-1 were tested across a large panel of organisms. EIPE-1 was dissolved in DMSO, impregnated onto sterile filter paper disks, and DMSO served as the untreated control according to the following procedure: • 1. Prepare a 2.5 μg/μL stock solution of EIPE-1 by micro pipetting 200 μL of DMSO into 2.0 mL Eppendorf Tube containing 0.5 mg of EIPE-1. Dissolve with vortex agitation and store at 4° C. • 2. Use forceps to pick up sterile 6.0 mm blank paper disks. Make sure to touch only one side of disc as lightly as possible. While holding blank paper disc, deliver 10.0 μL of the 2.5 μg/μL EIPE-1 solution by touching the micropipette tip to the center of the blank paper disc. Lean the impregnated disc up against the side of a small sterile glass petri dish. Follow same procedure for DMSO control. Allow disks several hours to dry under flowing sterile air. • 3. Inoculate starter cultures using cells from working culture cultivated on Mueller-Hinton Agar (MHA; Difco Laboratories). Starters consist of ˜20 mL of Mueller-Hinton Broth (MHB; Difco Laboratories) in 125-mL culture flasks. Incubate starter cultures in an Excella E24 Benchtop Incubator Shaker (New Brunswick Scientific Co., Inc., Edison, N.J., USA) at 37° C. and 180 rpm for 15-18 hours. • 4. Pour at least 5.0 mL of NMB into 18-mL Kimax tubes. Use a Pasteur pipette to deliver enough of the starter culture cell suspension to reach an optical density (OD620) of 0.025 (Spectronic™ 20 optical spectrophotometer; Thermo Electron Corp., Madison, Wis., USA). Ensure that both transmittance and absorbance are set to 0.0 using a blank NMB sample. Incubate in rotary shaking incubator at 37° C. and 180 rpm until optical density reaches 0.1. • 5. Deliver 100 μL of test culture to the middle of a small 100 mm×15 mm Petri dish containing ˜⅛ in thickness of MHA. • 6. Saturate a sterile cotton swab with MHB by dipping the cotton swab into KIMAX® tube with MHB and then touch the swab to the north, south, east, and west side of the KIMAX® tube to remove excess broth. • 7. Streak the inoculum as follows: • a. Start in the center and make four straight lines to the 12, 3, 6, and 9 o'clock position on the petri dish. • b. Start at the 12 o'clock position and streak side to side all the way down the plate to the 6 o'clock position. […] Rotate the petri dish 90° and complete the same side to side streak all the way down the petri dish. • d. Complete step c. twice more. • e. Rotate petri dish 45° and complete the side-to-side streak. • f. Rotate petri dish 90° and complete the side-to-side streak. • 8. Use sterile forceps to transfer the DMSO control paper disc onto the agar surface and pat the paper disc down to ensure flush contact. Use the same technique to deliver EIPE-1 paper disc. • 9. Place petri dish at 4° C. for 1.0 hour to allow EIPE-1 diffusion in the absence of growth. • 10. Incubate petri dish at 37° C. for 18 hours. • 11. Observe for zones of growth inhibition surrounding disks. Measure diameter with electronic caliper and subtract 6.0-mm disc diameter. Results • a) Each organism was initially tested once to serve as a screen.

[2] = tested on: Deinoccus radiophilus; conditions: Group 2: Gram-positive organisms
Method: as §1

[3] = tested on: Enterococcus faecalis; conditions: Group 2: Gram-positive organisms
Method: as §1

[4] = tested on: Escherichia coli ATCC 25922; conditions: Group 1: Gram-negative organisms
Method: as §1

[5] = tested on: Escherichia coli K12413; conditions: Group 1: Gram-negative organisms
Method: as §1

[6] = tested on: Lactococcus lactis
Method: as §1

[7] = tested on: Micrococcus luteus
Method: as §1

[8] = tested on: Pasteurella moltocida P-1581; conditions: Group 1: Gram-negative organisms
Method: as §1

[9] = tested on: Pseudomonas aeruginosa ATCC 27853; conditions: Group 1: Gram-negative organisms
Method: as §1

[10] = tested on: Serratia entomophila ATCC 43705; conditions: Group 1: Gram-negative organisms
Method: as §1

[11] = tested on: Serratia fonticola ATCC 9844; conditions: Group 1: Gram-negative organisms
Method: as §1

[12] = tested on: Serratia marcescens 8100; conditions: Group 1: Gram-negative organisms
Method: as §1

[13] = tested on: Serratia marcescens ATCC 13880; conditions: Group 1: Gram-negative organisms
Method: as §1

[14] = tested on: Serratia marcescens CO1-A; conditions: Group 1: Gram-negative organisms
Method: as §1

[15] = tested on: Serratia marcescens db11; conditions: Group 1: Gram-negative organisms
Method: as §1

[16] = tested on: Serratia odorifera ATCC 53077; conditions: Group 1: Gram-negative organisms
Method: as §1

[17] = tested on: Serratia plymuthica ATCC 183; conditions: Group 1: Gram-negative organisms
Method: as §1

[18] = tested on: Serratia rubidaea ATCC 27593; conditions: Group 1: Gram-negative organisms
Method: as §1

[19] = tested on: Staphylococcus aureus ATCC 29213
Method: as §1

[20] = tested on: Staphylococcus aureus SFL 64
Method: as §1

[21] = tested on: Staphylococcus aureus SFL 8
Method: as §1

[22] = tested on: Staphylococcus aureus T-5706
Method: as §1

[23] = tested on: Staphylococcus epidermidis
Method: as §1

[24] = Group 2: Gram-positive organisms
[25] = Group 3: Gram-positive organisms

COC(=O)c1cc2c(C#Cc3ccc(OCCC[N+](C)(C)C)cc3)c(OC)c(OC)c(C#Cc3ccc(OCCC[N+](C)(C)C)cc3)c2n1C [EIPE-1, 3,3′-((((5,6-dimethoxy-2-(methoxycarbonyl)-1-methyl-1H-indole-4,7-diyl)bis(ethyne-2,1-diyl))bis(4,1-phenylene))bis(oxy))bis(N,N,N-trimethylpropan-1-aminium) iodide]
zone of inhibition at 25 µg/disc ([1]; Bacillus cereus, B. cereus, 25 μg per disk, zone minus disk diameter (6.0mm), read-out: Inhibition Zone Diameter (mm) ± SD): 0 mm | susceptibility group in disc diffusion screen [1, 24]: resistant | susceptibility group in disc diffusion screen [2]: resistant | susceptibility group in disc diffusion screen [3]: resistant | susceptibility group in disc diffusion screen [4]: resistant | susceptibility group in disc diffusion screen [5]: resistant | susceptibility group in disc diffusion screen [6, 24]: resistant | zone of inhibition at 25 µg/disc ([6]; Lactococcus lactis, L. lactis, 25 μg per disk, zone minus disk diameter (6.0mm), read-out: Inhibition Zone Diameter (mm) ± SD): 0.4 ± 0.6 mm | susceptibility group in disc diffusion screen [7, 24]: resistant | zone of inhibition at 25 µg/disc ([7]; Micrococcus luteus, M. luteus, 25 μg per disk, zone minus disk diameter (6.0mm), read-out: Inhibition Zone Diameter (mm) ± SD): 1 ± 1 mm | zone of inhibition at 250 µg/disc ([7]; Micrococcus luteus, M. luteus, 250 μg per disk, zone minus disk diameter (6.0mm), read-out: Inhibition Zone Diameter (mm) ± SD): 2.2 ± 1.9 mm | susceptibility group in disc diffusion screen [8]: resistant | susceptibility group in disc diffusion screen [9]: resistant | susceptibility group in disc diffusion screen [10]: resistant | susceptibility group in disc diffusion screen [11]: resistant | susceptibility group in disc diffusion screen [12]: resistant | susceptibility group in disc diffusion screen [13]: resistant | susceptibility group in disc diffusion screen [14]: resistant | susceptibility group in disc diffusion screen [15]: resistant | susceptibility group in disc diffusion screen [16]: resistant | susceptibility group in disc diffusion screen [17]: resistant | susceptibility group in disc diffusion screen [18]: resistant | susceptibility group in disc diffusion screen [19, 25]: susceptible | zone of inhibition at 25 µg/disc ([19]; Staphylococcus aureus, ATCC29213, S. aureus ATCC 29213, 25 μg per disk, zone minus disk diameter (6.0mm), read-out: Inhibition Zone Diameter (mm) ± SD): 2.2 ± 0.6 mm | zone of inhibition at 250 µg/disc ([19]; Staphylococcus aureus, ATCC29213, S. aureus ATCC 29213, 250 μg per disk, zone minus disk diameter (6.0mm), read-out: Inhibition Zone Diameter (mm) ± SD): 2.9 ± 0.3 mm | susceptibility group in disc diffusion screen [20, 25]: susceptible | zone of inhibition at 25 µg/disc ([20]; Staphylococcus aureus, SFL64, S. aureus SFL 64, 25 μg per disk, zone minus disk diameter (6.0mm), read-out: Inhibition Zone Diameter (mm) ± SD): 2.5 ± 1.5 mm | zone of inhibition at 250 µg/disc ([20]; Staphylococcus aureus, SFL64, S. aureus SFL 64, 250 μg per disk, zone minus disk diameter (6.0mm), read-out: Inhibition Zone Diameter (mm) ± SD): 2.5 ± 0.2 mm | susceptibility group in disc diffusion screen [21, 25]: susceptible | zone of inhibition at 25 µg/disc ([21]; Staphylococcus aureus, SFL8, S. aureus SFL 8, 25 μg per disk, zone minus disk diameter (6.0mm), read-out: Inhibition Zone Diameter (mm) ± SD): 2.4 ± 1.3 mm | zone of inhibition at 250 µg/disc ([21]; Staphylococcus aureus, SFL8, S. aureus SFL 8, 250 μg per disk, zone minus disk diameter (6.0mm), read-out: Inhibition Zone Diameter (mm) ± SD): 2.4 ± 0.3 mm | susceptibility group in disc diffusion screen [22, 25]: susceptible | zone of inhibition at 25 µg/disc ([22]; Staphylococcus aureus, T5706, S. aureus T-5706, 25 μg per disk, zone minus disk diameter (6.0mm), read-out: Inhibition Zone Diameter (mm) ± SD): 2.1 ± 0.3 mm | zone of inhibition at 250 µg/disc ([22]; Staphylococcus aureus, T5706, S. aureus T-5706, 250 μg per disk, zone minus disk diameter (6.0mm), read-out: Inhibition Zone Diameter (mm) ± SD): 2.2 ± 0.2 mm | susceptibility group in disc diffusion screen [23, 25]: susceptible | zone of inhibition at 25 µg/disc ([23]; Staphylococcus epidermidis, S. epidermidis, 25 μg per disk, zone minus disk diameter (6.0mm), read-out: Inhibition Zone Diameter (mm) ± SD): 2.6 ± 0.3 mm | zone of inhibition at 250 µg/disc ([23]; Staphylococcus epidermidis, S. epidermidis, 250 μg per disk, zone minus disk diameter (6.0mm), read-out: Inhibition Zone Diameter (mm) ± SD): 3.3 ± 0.5 mm
